Results on 23 compounds are retold here after patent US9216968B2, “Heterocyclic derivative and pharmaceutical drug” (NIPPON SHINYAKU CO., LTD., priority 2011, dated 2015).

SMILES strings stand for the structures. Structures can show the parent of a compound that is named as a salt.

One assay relates to A549 cells. Briefly: Inhibition of PGE2 production in A549 cell (IL-1β stimulated). The assay is classed as cell-based, human. Particulars: Homo sapiens, A549, 24 h, IL-1β 5 ng/well, PGE2 in culture medium. In short, it runs like this:
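A549 cells preincubated 60 min with compound in RPMI/3% FBS (final DMSO 0.10), then stimulated with IL-1β (5 ng/well) for 24 h at 37 °C. PGE2 measured by HTRF and PGF2α by EIA in medium; IC50 from inhibition relative to stimulated minus unstimulated production.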

For the next assay, the target named is human mPGES-1 (Homo sapiens (Human), UniProt O14684). Briefly: mPGES-1 inhibiting activity (microsome fractions, PGE2 by HTRF). The assay is classed as biochemical. The conditions noted are these: microsomes from CHO-K1 cells transfected with human mPGES-1; PGH2 1 μM, 4° C., 60 seconds; read-out: mPGES-1 Inhibition IC50. Summed up:
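PGE2 formation read by HTRF after 60 s at 4 °C with 1 μM PGH2 substrate, following 20 min compound preincubation (1% DMSO) with human mPGES-1 microsomes from transfected CHO-K1 cells. Buffer: potassium phosphate, reduced glutathione, pH 7.4; IC50 from activity relative to enzyme-free blank.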

human mPGES-1, sequence (O14684 whole entry): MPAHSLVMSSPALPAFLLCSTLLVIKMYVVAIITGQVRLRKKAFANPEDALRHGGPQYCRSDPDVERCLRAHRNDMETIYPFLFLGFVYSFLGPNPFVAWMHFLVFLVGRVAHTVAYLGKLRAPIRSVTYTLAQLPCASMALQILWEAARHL

In general, IC50 refers to the midpoint of a concentration-inhibition curve. As for `COCc1nc2c(C(=O)Nc3cccc(Cl)c3C)cc(NC(=O)c3ncccc3F)cc2[nH]1` [Example 244, N-(3-Chloro-2-methylphenyl)-6-{[(3-fluoropyridin-2-yl)carbonyl]amino}-2-(methoxymethyl)-1H-benzimidazole-4-carboxamide hydrochloride], the IC50 in the assay with A549 cells turned out to be 104 nM; on human mPGES-1 it was 56.2 nM.

Consider `COCc1nc2c(C(=O)Nc3cccc(Cl)c3C)cc(NC(=O)c3c(Cl)cncc3Cl)cc2[nH]1` [Example 246, N-(3-Chloro-2-methylphenyl)-6-{[(3,5-dichloropyridin-4-yl)carbonyl]amino}-2-(methoxymethyl)-1H-benzimidazole-4-carboxamide hydrochloride], for which the IC50 in the assay on A549 cells was found to be 132 nM; on human mPGES-1, 35.9 nM.

`COCc1nc2c(C(=O)Nc3cccc(Cl)c3C)cc(NC(=O)c3cc(CCC4CC4)ccc3Cl)cc2[nH]1` [Example 122, 6-({[2-Chloro-5-(2-cyclopropylethyl)phenyl]carbonyl}amino)-N-(3-chloro-2-methylphenyl)-2-(methoxymethyl)-1H-benzimidazole-4-carboxamide]: the IC50 in the assay on A549 cells is greater than 1000 nM; at human mPGES-1, 9.7 nM.

As to `Cc1c(Cl)cccc1NC(=O)c1cc(NC(=O)c2ccccc2C(F)(F)F)cc2[nH]c(NCC(C)(C)O)nc12` [Example 167, N-(3-Chloro-2-methylphenyl)-2-[(2-hydroxy-2-methylpropyl)amino]-6-({[2-(trifluoromethyl)phenyl]carbonyl}amino)-1H-benz imidazole-4-carboxamide hydrochloride], the IC50 is 217 nM in the assay with A549 cells and 1 nM on human mPGES-1.

`COCc1nc2c(C(=O)Nc3cccc4cccnc34)cc(NC(=O)c3ccccc3C(F)(F)F)cc2[nH]1` [Example 230, 2-(Methoxymethyl)-N-(quinolin-8-yl)-6-({[2-(trifluoromethyl)phenyl]carbonyl}amino)-1H-benzimidazole-4-carboxamide hydrochloride]: the figures for the IC50 in the assay on A549 cells and at human mPGES-1 were 100 nM and 1.9 nM, respectively.

On to `Cc1c(Cl)cccc1NC(=O)c1cc(NC(=O)c2ccccc2C(F)(F)F)cc2[nH]c(NCC(C)(C)CO)nc12` [Example 158, N-(3-Chloro-2-methylphenyl)-2-[(3-hydroxy-2,2-dimethylpropyl)amino]-6-({[2-(trifluoromethyl)phenyl]carbonyl}amino)-1H-benzimidazole-4-carboxamide hydrochloride], for which the IC50 with A549 cells worked out at 82.2 nM; at human mPGES-1 it was 8.5 nM.

Regarding `COCC(C)(C)CNc1nc2c(C(=O)Nc3cccc(Cl)c3C)cc(NC(=O)c3cc(Cl)ccc3Cl)cc2[nH]1` [Example 190, N-(3-Chloro-2-methylphenyl)-6-{[(2,5-dichlorophenyl)carbonyl]amino}-2-[(3-methoxy-2,2-dimethylpropyl)amino]-1H-benzimidazole-4-carboxamide hydrochloride], the IC50 in the assay on A549 cells was 7 nM; at human mPGES-1 it was 0.1 nM.

On to `CCOCc1nc2c(C(=O)Nc3cccc(Cl)c3C)cc(NC(=O)c3ccccc3C(F)(F)F)cc2[nH]1` [Example 79, N-(3-Chloro-2-methylphenyl)-2-(ethoxymethyl)-6-({[2-(trifluoromethyl)phenyl]carbonyl}amino)-1H-benzimidazole-4-carboxamide hydrochloride], for which the IC50 in the assay with A549 cells stood at 285 nM; at human mPGES-1, 15 nM.

`CC(=O)N1CCC[C@H]1c1nc2c(C(=O)Nc3cccc(Cl)c3C)cc(NC(=O)c3ccccc3C(F)(F)F)cc2[nH]1` [Example 73, 2-[(2S)-1-Acetylpyrrolidin-2-yl]-N-(3-chloro-2-methylphenyl)-6-({[2-(trifluoromethyl)phenyl]carbonyl}amino)-1H-benzimidazole-4-carboxamide]: the results for the IC50 in the assay with A549 cells and at human mPGES-1 were 76.4 nM and 18.6 nM, respectively.

For `COCc1nc2c(C(=O)Nc3ccc(C)cc3Cl)cc(NC(=O)c3ccccc3C(F)(F)F)cc2[nH]1` [Example 30, N-(2-Chloro-4-methylphenyl)-2-(methoxymethyl)-6-({[2-(trifluoromethyl)phenyl]carbonyl}amino)-1H-benzimidazole-4-carboxamide hydrochloride], the IC50 in the assay on A549 cells is 210 nM; at human mPGES-1 it was 1.8 nM.

For `Cc1c(Cl)cccc1NC(=O)c1cc(NC(=O)c2ccccc2C(F)(F)F)cc2[nH]c(N3CCN(C)CC3)nc12` [Example 143, N-(3-Chloro-2-methylphenyl)-2-(4-methylpiperazin-1-yl)-6-({[2-(trifluoromethyl)phenyl]carbonyl}amino)-1H-benzimidazole-4-carboxamide dihydrochloride], the IC50 in the assay with A549 cells is 87.5 nM; at human mPGES-1, 5.3 nM.

As to `Cc1c(Cl)cccc1NC(=O)c1cc(NC(=O)c2ccccc2C(F)(F)F)cc2[nH]c(NCC(=O)O)nc12` [Example 161, N-{4-[(3-Chloro-2-methylphenyl)carbamoyl]-6-({[2-(trifluoromethyl)phenyl]carbonyl}amino)-1H-benzimidazol-2-yl}glycine hydrochloride], the IC50 was greater than 10000 nM in the assay with A549 cells and 3.8 nM at human mPGES-1.

Take `CCN(CC)CCNc1nc2c(C(=O)Nc3cccc(Cl)c3C)cc(NC(=O)c3ccccc3C(F)(F)F)cc2[nH]1` [Example 151, N-(3-Chloro-2-methylphenyl)-2-{[2-(diethylamino)ethyl]amino}-6-({[2-(trifluoromethyl)phenyl]carbonyl}amino)-1H-benzimidazole-4-carboxamide hydrochloride]: the figures for the half-maximal inhibitory concentration (IC50) with A549 cells and on human mPGES-1 were 328 nM and 11.6 nM, respectively.

As to `COCC(C)(C)CNc1nc2c(C(=O)Nc3cccc(Cl)c3C)cc(NC(=O)c3c(F)cccc3Cl)cc2[nH]1` [Example 196, 6-{[(2-Chloro-6-fluorophenyl)carbonyl]amino}-N-(3-chloro-2-methylphenyl)-2-[(3-methoxy-2,2-dimethylpropyl)amino]-1H-benzimidazole-4-carboxamide hydrochloride], the values for the IC50 in the assay with A549 cells and on human mPGES-1 were 35.9 nM and 6.5 nM, respectively.

As to `CN(C)c1nc2c(C(=O)Nc3ccc4c(c3)CCC4)cc(NC(=O)c3ccccc3C(F)(F)F)cc2[nH]1` [Example 204, N-(2,3-Dihydro-1H-inden-5-yl)-2-(dimethylamino)-6-({[2-(trifluoromethyl)phenyl]carbonyl}amino)-1H-benzimidazole-4-carb oxamide hydrochloride], the IC50 in the assay on A549 cells is 12.2 nM; on human mPGES-1 it was 1 nM.

`COCc1nc2c(C(=O)Nc3cccc(Cl)c3C)cc(NC(=O)c3cc(Cl)ccc3Br)cc2[nH]1` [Example 107, 6-{[(2-Bromo-5-chlorophenyl)carbonyl]amino}-N-(3-chloro-2-methylphenyl)-2-(methoxymethyl)-1H-benzimidazole-4-carboxamide hydrochloride]: the IC50 came out at 42 nM in the assay with A549 cells and 1.5 nM on human mPGES-1.

As for `COCc1nc2c(C(=O)Nc3ccccc3OC)cc(NC(=O)c3ccccc3C(F)(F)F)cc2[nH]1` [Example 36, 2-(Methoxymethyl)-N-(2-methoxyphenyl)-6-({[2-(trifluoromethyl)phenyl]carbonyl}amino)-1H-benzimidazole-4-carboxamide], the IC50 in the assay on A549 cells is 234 nM; at human mPGES-1, 147 nM.

Consider `Cc1c(Cl)cccc1NC(=O)c1cc(NC(=O)c2ccccc2C(F)(F)F)cc2[nH]c([C@@H]3CCCN3C)nc12` [Example 72, N-(3-Chloro-2-methylphenyl)-2-[(2S)-1-methylpyrrolidin-2-yl]-6-({[2-(trifluoromethyl)phenyl]carbonyl}amino)-1H-benzimidazole-4-carboxamide], for which the values for the IC50 with A549 cells and at human mPGES-1 were 60 nM and 9.8 nM, respectively.

Regarding `Cc1c(Cl)cccc1NC(=O)c1cc(NC(=O)c2ccccc2C(F)(F)F)cc2c1ncn2C` [Example 46, N-(3-Chloro-2-methylphenyl)-1-methyl-6-({[2-(trifluoromethyl)phenyl]carbonyl}amino)-1H-benzimidazole-4-carboxamide], the IC50 in the assay on A549 cells was 231 nM; on human mPGES-1, 26 nM.

On to `CCOCc1nc2c(C(=O)NCc3ncccc3C(F)(F)F)cc(NC(=O)c3ccccc3C(F)(F)F)cc2[nH]1` [Example 80, 2-(Ethoxymethyl)-6-({[2-(trifluoromethyl)phenyl]carbonyl}amino)-N-{[3-(trifluoromethyl)pyridin-2-yl]methyl}-1H-benzimidazole-4-carboxamide dihydrochloride], for which the IC50 in the assay on A549 cells was determined as 1250 nM; on human mPGES-1, 29.4 nM.

Regarding `CCn1cnc2c(C(=O)NC3CCCCC3)cc(NC(=O)c3ccccc3C(F)(F)F)cc21` [Example 50, N-Cyclohexyl-1-ethyl-6-({[2-(trifluoromethyl)phenyl]carbonyl}amino)-1H-benzimidazole-4-carboxamide], the IC50 was found to be 810 nM in the assay with A549 cells and 140 nM on human mPGES-1.

`COCc1nc2c(C(=O)Nc3ccc(OC)cc3)cc(NC(=O)c3ccccc3C(F)(F)F)cc2[nH]1` [Example 37, 2-(Methoxymethyl)-N-(4-methoxyphenyl)-6-({[2-(trifluoromethyl)phenyl]carbonyl}amino)-1H-benzimidazole-4-carboxamide]: the IC50 is 265 nM with A549 cells and 23.3 nM on human mPGES-1.

Turning to `COCc1nc2c(C(=O)Nc3cccc(Cl)c3CO)cc(NC(=O)c3ccccc3C(F)(F)F)cc2[nH]1` [Example 234, N-[3-Chloro-2-(hydroxymethyl)phenyl]-2-(methoxymethyl)-6-({[2-(trifluoromethyl)phenyl]carbonyl}amino)-1H-benzimidazole-4-carboxamide], the IC50 in the assay on A549 cells worked out at 198 nM; at human mPGES-1 it was 97.4 nM.
